Assay results taken from the supplement of paper PMC7840683.
Counter-ions that a name gives are not always drawn. ± gives the standard deviation of the averaged measurements.

Tested on: HepaRG
Assay: LDH release cytotoxicity, % of total lysis control; higher = more cytotoxic
Settings: 48 h
Outline: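 Single-lot HepaRG cells in collagen I-coated 96-well plates were treated for 48 h in serum-free induction medium containing 0.5% DMSO with test chemicals in eight-point half-log series up to 100 µM. For total lysis, wells received 0.1% Triton X. LDH in 50 µL spent medium was assayed by resorufin fluorescence with CytoTox-ONE. Percent cytotoxicity was normalized to the on-plate vehicle and total lysis controls, with duplicates averaged.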

Structure (SMILES)	LDH release cytotoxicity (0.03162 µM) [%]	LDH release cytotoxicity (0.1 µM) [%]	LDH release cytotoxicity (0.3162278 µM) [%]	LDH release cytotoxicity (1 µM) [%]	LDH release cytotoxicity (3.16228 µM) [%]	LDH release cytotoxicity (10 µM) [%]	LDH release cytotoxicity (31.6228 µM) [%]	LDH release cytotoxicity (100 µM) [%]	also measured
Cc1cc(SC2C(=O)CC(CCc3ccc(N)cc3)(C(C)C)OC2=O)c(C(C)(C)C)cc1CO (configuration not stated) [CI-1029]	-0.634 ± 0.8	-3.84 ± 0.53	-3.74 ± 0.38	-3.966 ± 0.027	-4.19 ± 0.59	-3.49 ± 0.12	-3.96 ± 0.73	-2.25 ± 0.55	–
CCCCN1C(=O)C(C(O)C2CCCCC2)NC(=O)C12CCN(Cc1ccc(Oc3ccc(C(=O)O)cc3)cc1)CC2 (configuration not stated) [Aplaviroc hydrochloride]	-1.85 ± 0.7	-1.71 ± 0.38	-3.23 ± 0.59	-2.439 ± 0.0083	-3.02 ± 0.42	0.0163 ± 0.13	7.4 ± 0.52	27.4 ± 2.6	–
O=c1n(Cl)c(=O)n(Cl)c(=O)n1Cl [Symclosene]	-1.22 ± 0.62	-0.82 ± 0.92	-0.254 ± 0.19	-0.453 ± 0.22	0.284 ± 0.16	1.48 ± 1.4	0.324 ± 1.8	2.44 ± 2	–
CC(C)(C)C(O)(CCc1ccc(Cl)cc1)Cn1cncn1 (configuration not stated) [Tebuconazole]	-1.4 ± 0.64	-0.0947 ± 0.069	-1.08 ± 1.2	-1.1 ± 1.6	-0.155 ± 0.14	-0.0217 ± 1.5	1.4 ± 1	16.5 ± 0.49	–
CCCSP(=O)(OCC)Oc1ccc(Br)cc1Cl (configuration not stated) [Profenofos]	–	–	–	–	–	–	–	–	LDH release cytotoxicity (0.01581 µM): -6.81 ± 0.41%; LDH release cytotoxicity (0.05 µM): -6.73 ± 0.81%; LDH release cytotoxicity (0.1581139 µM): -6.46 ± 0.68%; LDH release cytotoxicity (0.5 µM): -6.51 ± 0.86%; LDH release cytotoxicity (1.5811388 µM): -6.7 ± 1.5%; LDH release cytotoxicity (5 µM): -7.47 ± 0.58%; LDH release cytotoxicity (15.8114 µM): -7.49 ± 1.1%; LDH release cytotoxicity (50 µM): -6.78 ± 0.14%
CCCN(CCC)c1c([N+](=O)[O-])cc(C(C)C)cc1[N+](=O)[O-] [Isopropalin]	-0.731 ± 0.3	-1.48 ± 0.89	-2.92 ± 0.17	-1.36 ± 0.06	-1.98 ± 0.26	-1.28 ± 0.079	-1.55 ± 0.27	-0.986 ± 0.92	–
Cc1ncc(C(CCCCCCc2ccc3c(n2)NCCC3)CC(=O)O)cn1 (configuration not stated)	-1.55 ± 0.6	-1.82 ± 1.1	-1.74 ± 0.75	-2.04 ± 0.057	-1.49 ± 1.3	-1.25 ± 0.094	-1.33 ± 0.38	0.986 ± 0.45	–
N#CC(Br)Br [Dibromoacetonitrile]	-2.24 ± 0.96	-3.22 ± 0.87	-2.74 ± 0.21	-2.98 ± 0.13	-2.65 ± 0.41	-2.89 ± 1.6	-2.1 ± 0.82	-0.937 ± 0.31	–
NC(=O)N1c2ccccc2C=Cc2ccccc21 [Carbamazepine]	-0.712 ± 0.62	-0.993 ± 0.65	-1.39 ± 0.76	-0.89 ± 0.085	-0.514 ± 0.98	-1.28 ± 0.24	-1.043 ± 0.0064	0.39 ± 0.34	–
OCC(CO)(CBr)CBr [Pentaerythritol dibromide]	-0.95 ± 0.41	-1.43 ± 0.67	-2.05 ± 0.21	-2.19 ± 0.11	-1.68 ± 0.31	-1.56 ± 0.1	-0.856 ± 0.31	0.8 ± 1.4	–
CCC(C)C(=O)OC1CC(O)C=C2C=CC(C)C(CCC(O)CC(O)CC(=O)O)C21 (configuration not stated) [Pravastatin sodium]	-0.512 ± 0.58	-1.91 ± 0.093	-0.491 ± 0.075	-1.07 ± 0.62	-0.742 ± 0.055	0.11 ± 0.94	0.155 ± 0.37	3.76 ± 0.56	–
O=CCCCC=O [Glutaraldehyde]	-0.884 ± 0.62	-1.62 ± 0.91	-1.72 ± 0.78	-1.74 ± 0.39	-1.11 ± 0.16	-0.663 ± 0.23	-1.18 ± 0.084	0.174 ± 0.34	–
CCCCCCCCCCCC[N+](C)(C)C [Dodecyltrimethylammonium chloride]	-1.4 ± 0.15	-0.753 ± 0.6	-1.39 ± 0.13	-1.32 ± 0.19	-1.23 ± 0.47	-0.28 ± 0.2	0.602 ± 0.64	78 ± 0.7	–
OCC1OC2OC3C(CO)OC(OC4C(CO)OC(OC5C(CO)OC(OC6C(CO)OC(OC7C(CO)OC(OC1C(O)C2O)C(O)C7O)C(O)C6O)C(O)C5O)C(O)C4O)C(O)C3O (stereo not drawn) [alpha-Cyclodextrin]	–	–	–	–	–	–	–	–	LDH release cytotoxicity (0.016602 µM): -2.18 ± 0.47%; LDH release cytotoxicity (0.0525 µM): -2.3 ± 0.3%; LDH release cytotoxicity (0.16602 µM): -1.73 ± 1.5%; LDH release cytotoxicity (0.525 µM): -2.65 ± 2%; LDH release cytotoxicity (1.6602 µM): -2.1 ± 0.45%; LDH release cytotoxicity (5.25 µM): -1.71 ± 0.9%; LDH release cytotoxicity (16.601958 µM): -1.44 ± 0.78%; LDH release cytotoxicity (52.5 µM): 0.413 ± 1.5%
CCOP(=S)(OCC)Oc1nc(Cl)n(C(C)C)n1 [Isazofos]	–	-1.65 ± 0.25	–	-2.59 ± 0.06	-3.48 ± 0.65	-3 ± 0.69	-3.67 ± 1.1	1.66 ± 0.81	LDH release cytotoxicity (0.031623 µM): 0.0296 ± 0.94%; LDH release cytotoxicity (0.316228 µM): -2.1 ± 1%
CCCCCCCCOC(=O)c1cc(O)c(O)c(O)c1 [Octyl gallate]	-1.14 ± 0.66	-0.159 ± 0.23	-0.124 ± 0.33	-0.776 ± 1.1	0.219 ± 0.33	-0.238 ± 0.52	-1.86 ± 0.4	2.05 ± 1.3	–
CCOC(=O)C(Cl)Cc1cc(-n2nc(C)n(C(F)F)c2=O)c(F)cc1Cl (configuration not stated) [Carfentrazone-ethyl]	-0.276 ± 0.32	-1.32 ± 0.6	-0.782 ± 0.36	-0.573 ± 0.12	-0.524 ± 0.13	-0.0179 ± 0.2	-0.285 ± 0.48	1.22 ± 0.5	–
CCC(C)C(=O)OC1CC(C)C=C2C=CC(C)C(CCC3CC(O)CC(=O)O3)C21 (configuration not stated) [Lovastatin]	–	-2.24 ± 2.7	–	-3.8 ± 0.94	-3.98 ± 0.75	-3.52 ± 0.1	-3.4 ± 0.086	1.06 ± 0.76	LDH release cytotoxicity (0.031623 µM): -0.879 ± 0.35%; LDH release cytotoxicity (0.316228 µM): -3.24 ± 1.1%
Cc1cccc(N)c1N [2,3-Diaminotoluene]	-0.0536 ± 0.59	-0.722 ± 0.31	0.216 ± 0.21	-0.468 ± 0.4	-0.351 ± 0.98	0.016 ± 0.52	-0.572 ± 0.99	0.619 ± 0.97	–
COC(=O)NS(=O)(=O)c1ccc(N)cc1 [Asulam]	-0.269 ± 0.97	-1.42 ± 0.1	-0.821 ± 0.14	-0.262 ± 0.22	-1.05 ± 0.18	-0.725 ± 0.87	-0.233 ± 0.19	0.635 ± 1	–
CCOP(=S)(OCC)SCSC(C)(C)C [Terbufos]	-1.37 ± 0.13	-0.712 ± 0.88	-1.15 ± 0.65	-1.03 ± 0.13	-0.647 ± 0.28	-0.0424 ± 0.46	-0.0818 ± 0.1	1.12 ± 0.089	–
O=C(OCCOCCOC(=O)c1ccccc1)c1ccccc1 [Diethylene glycol dibenzoate]	-0.909 ± 1	-1.337 ± 0.0031	-0.774 ± 0.13	-1.03 ± 1.1	-1.1 ± 0.042	-0.826 ± 0.27	-1.09 ± 0.2	0.38 ± 0.34	–
CC(C)=CCC/C(C)=C\CO [(2Z)-3,7-Dimethylocta-2,6-dien-1-ol]	-0.521 ± 1.3	-0.112 ± 1.1	0.637 ± 0.11	0.207 ± 0.16	0.25 ± 0.08	0.588 ± 0.27	0.393 ± 0.26	1.1 ± 0.14	–
COC=C(C(=O)OC)c1ccccc1COc1cccc(C(F)(F)F)n1 [Picoxystrobin]	-4.13 ± 1	-3.11 ± 1.4	-4.04 ± 0.58	-4.28 ± 1.9	-5.14 ± 0.47	20 ± 2.6	37 ± 6.9	60 ± 9.4	–
OC(Cn1cncn1)(Cn1cncn1)c1ccc(F)cc1F [Fluconazole]	-1.56 ± 0.43	-0.0671 ± 1.1	0.556 ± 0.68	-0.472 ± 0.33	0.965 ± 0.97	0.138 ± 0.29	0.241 ± 0.57	0.712 ± 0.97	–
CC(c1ccc(O)cc1)(c1ccc(O)cc1)c1ccc(O)cc1 [4,4',4''-Ethane-1,1,1-triyltriphenol]	-1.89 ± 0.76	-1.24 ± 0.1	-1.7 ± 0.43	-1.8 ± 0.66	-0.727 ± 0.39	-1.47 ± 0.018	-1.43 ± 0.12	-0.486 ± 0.26	–
Nc1cccc(N)c1 [1,3-Benzenediamine]	-1.18 ± 0.7	-2.11 ± 0.27	-1.93 ± 0.12	-1.36 ± 0.52	-1 ± 0.48	-0.806 ± 0.47	-1.17 ± 0.023	0.323 ± 1.3	–
O=C(O)C(Cl)(Cl)Cl [Trichloroacetic acid]	-0.739 ± 0.85	-2.11 ± 0.056	-2.765 ± 0.0095	-2.27 ± 0.54	-2.74 ± 0.85	-2.07 ± 0.18	-1.13 ± 0.15	0.84 ± 1.1	–
CCN(CC)c1ccccc1 [N,N-Diethylaniline]	-1.55 ± 0.24	-1.44 ± 0.47	-1.37 ± 0.23	-1.59 ± 0.4	-0.839 ± 0.86	-1.07 ± 0.4	-0.362 ± 0.47	0.493 ± 0.011	–
